From US8779202B2, “Compositions and methods for the treatment of giardiasis” (Georgetown University, priority 2009, dated 2014)

Experiments:
[1] = system: Giardia parasite cultures; test: Reversibility of compound effect on Giardia viability and attachment; format: cell-based, Giardia lamblia; settings: 15 μM, 30 minutes-2 hours in PBS at 37° C., wash, 48 hours in growth media
Procedure: Parasite cultures were treated for 30 minutes—2 hours with 15 μM of Compounds I-16, III-1, IV-1, V-1, VI-1, VII-1, and VIII-2A in PBS at 37° C. Parasites were then washed with warm PBS to remove compounds, and were placed in normal Giardia growth media for an additional 48 hours. […] All comparisons were made to cultures of untreated Giardia.

Giardia parasites = test: Video microscopy of parasite morphology and dynamics; format: cell-based, Giardia lamblia; settings: for Observed Parasite Morphology and Dynamics: Table I, video microscopy at 50, 15, 10, 5 and 1 μM
Procedure: A series of video microscopy studies were undertaken to examine the effect of the compounds on parasite morphology and dynamics. Short 1 minute videos of parasite behavior were recorded using DIC optics on a Zeiss AXIOPLAN microscope (Carl Zeiss Microimaging GmbH, Germany) using a Photometrics CCD camera (Photometrics, Inc.; Tucson, Ariz.). Recordings were made on at least three separate occasions at compound concentrations of 50 μM, 15 μM, 10 μM, 5 μM, and 1 μM to allow comparison to the dose-response curves in the attachment assay. Four broad categories of compound action were found (see Table I).

| Compound | reversibility of effect on parasite attachment and viability [1] | effect on parasite morphology and activity (Giardia parasites) | Observed Parasite Morphology and Dynamics (Giardia parasites) |
| --- | --- | --- | --- |
| O=C1C=C(N2CCN(c3ccccn3)CC2)C(=O)c2c(O)ccc(O)c21 [Compound IV-1] | irreversible | profoundly disrupted parasite morphology or simply destroyed the parasites | Parasites display a profoundly disrupted morphology |
| Nogalamycin [Compound VII-1] | largely reversible | no observable effect on Giardia morphology, but did cause flagellar paralysis | Parasites display disrupted peripheral morphology, |
| Cc1c(Cl)cc(C(C)(C)C)c(O)c1Cc1c(C)c(Cl)cc(C(C)(C)C)c1O [Compound VI-1] | largely reversible | disrupted peripheral morphology, resulting either in loss of overall shape or localized membrane blebbing | Parasites display disrupted peripheral morphology, |
| Nc1nc(SCc2ccccc2[N+](=O)[O-])c2[nH]cnc2n1 [Compound V-1] | largely reversible | disrupted peripheral morphology, resulting either in loss of overall shape or localized membrane blebbing | – |
| Oc1ccc2ccccc2c1CN(Cc1c(O)ccc2ccccc12)C1CCCCC1 [Compound I-16] | largely reversible | no observable effect on parasite morphology and activity, but did significantly reduce attachment | Parasites appear normal in morphology and activity, |
| CC(Br)C(=O)c1ccc2cc(Br)c3ccccc3c2c1 (centres unmarked) [Compound III-1] | irreversible | profoundly disrupted parasite morphology or simply destroyed the parasites | Parasites display a profoundly disrupted morphology |
| C[C@H]1CC[C@@H]2[C@@H](C)[C@H]3[C@H](C[C@H]4[C@@H]5CC=C6C[C@@H](O)CC[C@]6(C)[C@H]5CC[C@]34C)N2C1 [Compound VIII-2A] | largely reversible | no observable effect on parasite morphology and activity, but did significantly reduce attachment | Parasites appear normal in morphology and activity, |
